Activity calls are given as the source filed them. No cut-off for these calls is given here.
Legend:
[1] = Half life in CD-1 mouse at 1 mg/kg, iv by LC-MS/MS analysis; format: ADME, organism-based; details: in vivo
[2] = Half life in CD-1 mouse at 5 mg/kg, po via gavage by LC-MS/MS analysis; format: ADME, organism-based; details: in vivo
[3] = Cmax in CD-1 mouse at 5 mg/kg, po via gavage by LC-MS/MS analysis; format: ADME, organism-based; details: in vivo
[4] = AUC (0 to last) in CD-1 mouse at 5 mg/kg, po via gavage by LC-MS/MS analysis; format: ADME, organism-based; details: in vivo
[5] = Oral bioavailability in CD-1 mouse at 5 mg/kg via gavage by LC-MS/MS analysis; format: ADME, organism-based; details: in vivo
[6] = Half life in CD-1 mouse at 75 mg/kg, po via gavage by LC-MS/MS analysis; format: ADME, organism-based; details: in vivo
[7] = Cmax in CD-1 mouse at 75 mg/kg, po via gavage by LC-MS/MS analysis; format: ADME, organism-based; details: in vivo
[8] = AUC (0 to last) in CD-1 mouse at 75 mg/kg, po via gavage by LC-MS/MS analysis; format: ADME, organism-based; details: in vivo
[9] = Intrinsic clearance in mouse hepatocytes at 1 uM measured after 90 mins by LC-MS/MS analysis; format: ADME, cell-based, Hepatocyte; details: read-out: CLH
[10] = Intrinsic clearance in rat hepatocytes at 1 uM measured after 90 mins by LC-MS/MS analysis; format: ADME, cell-based, Hepatocyte; details: read-out: CLH
[11] = Intrinsic clearance in dog hepatocytes at 1 uM measured after 90 mins by LC-MS/MS analysis; format: ADME, cell-based, Canis lupus familiaris, Hepatocyte; details: read-out: CLH
[12] = Intrinsic clearance in cynomolgus monkey hepatocytes at 1 uM measured after 90 mins by LC-MS/MS analysis; format: ADME, cell-based, Macaca fascicularis, Hepatocyte; details: read-out: CLH
[13] = Protein binding in Beagle dog plasma at 0.2 to 10 uM measured after 4 hrs by equilibrium dialysis based LC-MS/MS analysis; format: ADME, cell-free, Canis lupus familiaris; details: dose 0.2-10 µM, read-out: PPB (converted)
[14] = Protein binding in human plasma at 0.2 to 10 uM measured after 4 hrs by equilibrium dialysis based LC-MS/MS analysis; format: ADME, cell-free; details: dose 0.2-10 µM, read-out: PPB (converted)
Cytochrome P450 2C9 = Cytochrome P450 2C9 (Homo sapiens, UniProt P11712); experiment: Inhibition of CYP2C9 in human liver microsomes using diclofenac as substrate preincubated for 10 mins followed by NADPH regeneration system addition and measured after 10 mins by LC-MS/MS analysis; format: ADME, Microsome
Cytochrome P450 2C19 = Cytochrome P450 2C19 (Homo sapiens, UniProt P33261); experiment: Inhibition of CYP2C19 in human liver microsomes using (S)-mephenytoin as substrate preincubated for 10 mins followed by NADPH regeneration system addition and measured after 20 mins by LC-MS/MS analysis; format: ADME, Microsome
[15] = Half life in Sprague-Dawley rat at 1 mg/kg, iv by LC-MS/MS analysis; format: ADME, organism-based; details: in vivo
[16] = Half life in Sprague-Dawley rat at 30 mg/kg, po administered via gavage by LC-MS/MS analysis; format: ADME, organism-based; details: in vivo
[17] = Cmax in Sprague-Dawley rat at 30 mg/kg, po administered via gavage by LC-MS/MS analysis; format: ADME, organism-based; details: in vivo
[18] = AUC (0 to last) in Sprague-Dawley rat at 30 mg/kg, po administered via gavage by LC-MS/MS analysis; format: ADME, organism-based; details: in vivo
[19] = Oral bioavailability in Sprague-Dawley rat at 30 mg/kg administered via gavage by LC-MS/MS analysis; format: ADME, organism-based; details: in vivo
[20] = Volume of distribution at steady state in Beagle dog at 1 mg/kg, iv by LC-MS/MS analysis; format: ADME, organism-based, Canis lupus familiaris; details: in vivo, read-out: Vdss
[21] = AUC (0 to last) in Beagle dog at 1 mg/kg, iv by LC-MS/MS analysis; format: ADME, organism-based, Canis lupus familiaris; details: in vivo
[22] = AUC (0 to last) in Beagle dog at 5 mg/kg, po by LC-MS/MS analysis; format: ADME, organism-based, Canis lupus familiaris; details: in vivo
[23] = Toxicity in mouse H22 cell implanted BALB/c mouse assessed as change in body weight at 15 to 50 mg/kg, po administered twice daily for 11 days measured daily during compound dosing; format: organism-based; details: in vivo, 264 h, dose 15-50 mg/kg, time 11 day
[24] = Time at which unbound plasma concentration required to show cellular IC50 for inhibition of smad phosphorylation in mouse H22 cell implanted BALB/c mouse at 15 mg/kg, po administered twice daily for 11 days; format: functional; details: time 11 day
[25] = Time at which unbound plasma concentration required to show cellular IC50 for inhibition of smad phosphorylation in mouse H22 cell implanted BALB/c mouse at 50 mg/kg, po administered twice daily for 11 days; format: functional; details: time 11 day
Mus musculus = experiment: In vivo inhibition of TGFbetaR1 in mouse H22 cell implanted BALB/c mouse assessed as reduction in Smad phosphorylation at 15 to 50 mg/kg, po administered twice daily for 11 days measured 1 to 12 hrs post-last dose by immunoblotting analysis; format: functional, organism-based; details: dose lower […], dose upper 50.0 mg/kg, time 11.0 day
[26] = Toxicity in mouse CT26 cell implanted BALB/c mouse assessed as change in body weight at 50 mg/kg, po administered twice daily in presence of antimouse-PD-L1 antibody; format: organism-based; details: in vivo
4T1-Luc [27] = experiment: Antimetastatic activity against mouse 4T1-Luc cells implanted in BALB/c mouse assessed as reduction in metastatic rate in lung at 100 mg/kg, po administered daily for 32 days and measured on day 30 to 35 by IVIS fluorescence analysis; format: functional, organism-based; details: time 35.0 day
4T1-Luc [28] = experiment: Antimetastatic activity against mouse 4T1-Luc cells implanted in BALB/c mouse assessed as reduction in metastatic rate in spleen at 100 mg/kg, po administered daily for 32 days and measured on day 30 to 35 by IVIS fluorescence analysis; format: functional, organism-based; details: time 35.0 day
4T1-Luc [29] = experiment: Antimetastatic activity against mouse 4T1-Luc cells implanted in BALB/c mouse assessed as reduction in metastatic rate in intestine at 100 mg/kg, po administered daily for 32 days and measured on day 30 to 35 by IVIS fluorescence analysis; format: functional, organism-based; details: time 35.0 day
4T1-Luc [30] = experiment: Antimetastatic activity against mouse 4T1-Luc cells implanted in BALB/c mouse assessed as reduction in metastatic rate in forelimb at 100 mg/kg, po administered daily for 32 days and measured on day 30 to 35 by IVIS fluorescence analysis; format: functional, organism-based; details: time 35.0 day
CD14-positive cell = experiment: Immunostimulatory activity in human PBMC derived M-CSF stimulated CD14-positive cells assessed as effect on M2 macrophage polarization at 0.01 to 10 uM supplemented with fresh medium containing compound on day 1, 3 and 5 followed by M-CSF/IL-4/IL-13 stimulation; format: functional, cell-based; details: dose 0.01-10 µM, time 5.0 day
HUVEC = experiment: Antiangiogenesis activity in HUVEC assessed as inhibition of vascular structure formation measured after 6 hrs by matrigel based inverted fluorescence microscopy; format: functional, cell-based; details: Homo sapiens, dose 0.1-10 µM
[31] = Drug metabolism in human liver microsomes; format: ADME, Microsome
[32] = Drug metabolism in dog liver microsomes; format: ADME, Canis lupus familiaris, Microsome
[33] = Drug metabolism in dog hepatocytes; format: ADME, cell-based, Canis lupus familiaris, Hepatocyte
[34] = Drug metabolism in monkey hepatocytes; format: ADME, cell-based, Macaca mulatta, Hepatocyte; details: rhesus monkey
[35] = Mutagenicity in Salmonella typhimurium TA98 in presence of liver S9 fraction by Ames test; format: toxicity, subcellular; details: salmonella enterica subsp. enterica serovar typhimurium
MDR1 = experiment: Efflux ratio of apparent permeability in dog MDCK-MDR1 cells at 2 uM measured over 150 mins by LC-MS/MS analysis; format: ADME, cell-based, Canis lupus familiaris

Chain of Cytochrome P450 2C19 (P33261 whole entry): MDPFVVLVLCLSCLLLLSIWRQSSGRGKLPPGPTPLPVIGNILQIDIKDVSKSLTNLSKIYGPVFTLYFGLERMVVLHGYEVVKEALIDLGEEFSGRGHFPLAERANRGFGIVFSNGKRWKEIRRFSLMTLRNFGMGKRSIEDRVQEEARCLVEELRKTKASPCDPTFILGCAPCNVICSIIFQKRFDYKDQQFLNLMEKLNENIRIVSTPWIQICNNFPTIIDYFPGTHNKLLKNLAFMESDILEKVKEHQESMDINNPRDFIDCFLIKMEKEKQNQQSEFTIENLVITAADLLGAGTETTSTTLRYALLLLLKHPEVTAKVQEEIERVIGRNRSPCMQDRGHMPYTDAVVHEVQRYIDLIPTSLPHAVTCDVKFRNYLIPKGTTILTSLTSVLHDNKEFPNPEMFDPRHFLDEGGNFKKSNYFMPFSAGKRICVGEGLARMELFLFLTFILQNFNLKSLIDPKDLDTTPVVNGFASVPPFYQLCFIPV
Chain of Cytochrome P450 2C9 (P11712 whole entry): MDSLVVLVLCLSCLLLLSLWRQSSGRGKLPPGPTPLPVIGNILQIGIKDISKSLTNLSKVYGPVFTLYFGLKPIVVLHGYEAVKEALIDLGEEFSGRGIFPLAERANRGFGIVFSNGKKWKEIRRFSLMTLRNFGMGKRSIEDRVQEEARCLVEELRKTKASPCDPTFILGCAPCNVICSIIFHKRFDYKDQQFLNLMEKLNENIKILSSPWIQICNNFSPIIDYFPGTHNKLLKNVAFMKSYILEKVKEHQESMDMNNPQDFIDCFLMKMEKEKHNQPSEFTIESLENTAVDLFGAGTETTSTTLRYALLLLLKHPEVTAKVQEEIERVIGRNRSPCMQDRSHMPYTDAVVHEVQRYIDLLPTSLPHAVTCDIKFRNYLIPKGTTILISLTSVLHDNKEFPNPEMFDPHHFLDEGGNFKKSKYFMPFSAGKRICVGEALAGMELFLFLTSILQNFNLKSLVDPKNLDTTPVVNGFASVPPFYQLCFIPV

Cc1cccc(-c2nn3c(c2-c2ccc4ncnn4c2/C=C/C(N)=O)CCC3)n1
half-life [1]: 29 min | half-life [2]: 55 min | Cmax [3]: 355 nM/ml | AUClast [4]: 285 nM.hr/ml | bioavailability [5]: 8.74% | half-life [6]: 51.4 min | Cmax [7]: 24233 nM/ml | AUClast [8]: 18137 nM.hr/ml | CLint scaled at […], 1 µM [9]: 298 mL/min/kg | CLint scaled at […], 1 µM [10]: 50 mL/min/kg | CLint scaled at […], 1 µM [11]: < 17.1 mL/min/kg | CLint scaled at […], 1 µM [12]: 19.3 mL/min/kg | fraction unbound at 4 h, up to 10 µM [13]: 0.476 | fraction unbound at 4 h, up to 10 µM [14]: 0.556 | IC50 (Cytochrome P450 2C9): > 100 µM | IC50 (Cytochrome P450 2C19): > 100 µM | half-life [15]: 52.2 min | half-life [16]: 121 min | Cmax [17]: 9553 nM/ml | AUClast [18]: 9614 nM.hr/ml | bioavailability [19]: 29.9% | Vd [20]: 0.961 L/kg | AUClast [21]: 5626 nM.hr/ml | AUClast [22]: 18284 nM.hr/ml | Activity [23]: Non-toxic | T>IC50 [24]: ~3.5 h | T>IC50 [25]: ~5.5 h | inhibition (Mus musculus): Active; Observed A Significant Decline In Phosphorylated Smad3 Protein At 1 H But Nearly Absent At […] Hrs | Activity [26]: Non-toxic | Activity (4T1-Luc [27]): Active | Activity (4T1-Luc [28]): Active | Activity (4T1-Luc [29]): Active | Activity (4T1-Luc [30]): Active | Activity (CD14-positive cell): inactive | inhibition (HUVEC): Dose-dependent-effect | Drug metabolism [31]: metabolite_detected | Drug metabolism [32]: metabolite_detected | Drug metabolism [33]: metabolite_detected | Drug metabolism [34]: metabolite_detected | Activity [35]: Non-toxic | efflux ratio at 2.5 h, 2 µM (MDR1): 70.7

— ChEMBL document CHEMBL6182942, “Discovery of a Selective, Novel TGF-βR1 Inhibitor GFH018 for the Treatment of Solid Tumors” (J Med Chem, 2025)
